Test results reported in patent EP4647061A1, “COMPOSITION CONTAINING RETINOL AND SYNERGIST AND USE THEREOF” (Guangzhou Jiyan Cosmetics Technology Co., Ltd., priority 2024, dated 2025).

Experiments:
Format in all cases: cell-based
[1] = system: CRABP2 cellular retinoic acid binding protein 2; assay: Transcription of CRABP2 by qRT-PCR in UVA-stimulated fibroblast model
Procedure: Testing method: based on UVA-stimulated fibroblast model, transcription of CRABP2 was tested using qRT-PCR method, and specific steps were as follows: • 1) Cell inoculation: after resuscitation of cells, when a plating rate reached about 60%, the cells were inoculated in a 6-well plate, and incubated overnight in an incubator (37 °C, 5% CO2). • 2) Liquid formulation: according to a test scheme (see TABLE 5), test substance working solutions were formulated respectively according to mass ratios. TABLE 5 CRABP2 Detection Scheme
3) Dosing: According to the test scheme in TABLE 5, when the plating rate of the cells in the 6-well plate reached about 30%-50%, dosing was performed for the groups respectively, with each group in triplicate. The blank control group and the negative control group were added with 2 mL of a culture solution per well, the positive control group was added with 2 mL of a TGF-β1-containing culture solution per well, and sample group was added with 2 mL of a test sample-containing culture solution at corresponding concentration per well. After the dosing was completed, the 6-well plate continued to be cultured in the CO2 incubator (37 °C, 5% CO2) for 24 h. […]
6) Detection of gene expression: RNA was extracted and subjected to reverse transcription to cDNA to undergo fluorescence quantitative PCR detection, and result was calculated by a 2^-△△CT method. […]

[2] = system: COL III (type III collagen); assay: Transcription of type III collagen (COL III) by qRT-PCR in UVA-stimulated fibroblast model; conditions: for PCR Transcription of Type III Collagen (COL III) Up-regulation Rate Compared with NC Group: UVA 30 J/cm^2, (sample - NC)/NC x 100%; for PCR Transcription of Type III Collagen (COL III) Mean Value: UVA 30 J/cm^2, mRNA by 2^-ΔΔCT normalised to BC = 1 (NC 0.67), dosing: TGF-β1 100 ng/mL, Pro-xylane 0.5000%, tetrapeptide-1 0.00109%, encapsulated retinol 0.00313%, combination at the same concentrations, 1440 min
Procedure: (§1) Testing method: based on UVA-stimulated fibroblast model, transcription of type I and type III collagens was tested using qRT-PCR method, and specific steps were as follows: • 1) Cell inoculation: after resuscitation of fibroblasts, when a plating rate reached about 60%, cells were inoculated in a 6-well plate, and incubated overnight in an incubator (37 °C, 5% CO2). • 2) Liquid formulation: according to test schemes (see TABLE 1 and TABLE 2), test substance working solutions were formulated respectively according to mass ratios. TABLE 1 COL I Detection Scheme
(§2) 3) Dosing: according to the test schemes in TABLE 1 and TABLE 2, when the plating rate of the cells in the 6-well plate reached about 30%-50%, dosing was performed for the groups respectively, with each group in triplicate. The blank control group and the negative control group were added with 2 mL of a culture solution per well, the positive control group was added with 2 mL of a TGF-β1-containing culture solution per well, and sample group was added with 2mL of a test sample-containing culture solution at corresponding concentration per well. After the dosing was completed, the 6-well plate continued to be cultured in the CO2 incubator (37 °C, 5% CO2) for 24 h.
(§3) 4) UVA stimulation: according to test groups, except the blank control group, other groups were all subjected to UVA irradiation, with an irradiation dosage of 30 J/cm^2. After the irradiation was finished, culture was continued in the CO2 incubator (37 °C, 5% CO2) for 24 h.
(§4) 5) Cell collection: after incubation was ended, an original solution was sucked out and discarded, PBS cleaning was performed twice, and each well was added with 1 mL of RNAiso Plus, to pipet and lyse the cells, after which samples were collected.
(§5) 6) Detection of gene expression: RNA was extracted and subjected to reverse transcription to cDNA to undergo fluorescence quantitative PCR detection, and result was calculated by a 2^-△△CT method.
(§6) 7) Calculation of up-regulation rate: Up-regulation rate (%) = (Sample group−Negative control group)/(Negative control group) × 100% [formula]
(§7) 8) Data analysis: statistical analysis was performed using t-test method, and normalization processing was performed on amplification factors of mRNA in BC group, where all statistical analysis was double-tailed. Compared with the blank group, significance is expressed by ^#, p<0.05 is expressed by ^#, p<0.01 is expressed by ^##; compared with the negative blank group, significance is expressed by*, p<0.05 is expressed by *, p<0.01 is expressed by **.

COLI (type I collagen) = assay: Transcription of type I collagen (COL I) by qRT-PCR in UVA-stimulated fibroblast model; conditions: for PCR Transcription of Type I Collagen (COL I) Up-regulation Rate Compared with NC Group: UVA 30 J/cm^2, (sample - NC)/NC x 100%; for PCR Transcription of Type I Collagen (COL I) Mean Value: UVA 30 J/cm^2, mRNA by 2^-ΔΔCT normalised to BC = 1 (NC 0.43), dosing: TGF-β1 100 ng/mL, Pro-xylane 0.5000%, tetrapeptide-1 0.00109%, encapsulated retinol 0.00313%, gum 0.00222%, combinations at the same concentrations, 1440 min
Procedure: as §1, §2, §3, §4, §5, §6, §7

## Tetrapeptide-1 [Comparative Example 2]
[1]; UVA 30 J/cm^2, (sample - NC)/NC x 100%
  Transcription of Cellular Retinoic Acid Binding Protein 2 (CRABP2) Up-regulation Rate Compared with NC Group: 20.83%
[1]; UVA 30 J/cm^2, mRNA by 2^-ΔΔCT normalised to BC = 1 (NC 0.48), dosing: TGF-β1 100 ng/mL, gum 0.00222%, encapsulated retinol 0.00313%, tetrapeptide-1 0.00109%, combinations at the same concentrations, 1440 min
  Transcription of Cellular Retinoic Acid Binding Protein 2 (CRABP2) Mean Value: 0.58
[2]
  PCR Transcription of Type III Collagen (COL III) Up-regulation Rate Compared with NC Group: 5.97%
  PCR Transcription of Type III Collagen (COL III) Mean Value: 0.71
COLI (type I collagen)
  PCR Transcription of Type I Collagen (COL I) Up-regulation Rate Compared with NC Group: 25.58%
  PCR Transcription of Type I Collagen (COL I) Mean Value: 0.54

## CC(O)C[C@@H]1OC[C@@H](O)[C@H](O)[C@H]1O (stereo partly shown) [Comparative Example 1, Pro-xylane, reference compound]
[2]
  PCR Transcription of Type III Collagen (COL III) Up-regulation Rate Compared with NC Group: 31.34%
  PCR Transcription of Type III Collagen (COL III) Mean Value: 0.88
COLI (type I collagen)
  PCR Transcription of Type I Collagen (COL I) Up-regulation Rate Compared with NC Group: 134.88%
  PCR Transcription of Type I Collagen (COL I) Mean Value: 1.01
